Results on twelve molecules are retold here after patent US20230265116A1, “DEGRADATION OF (EGFR) BY CONJUGATION OF EGFR INHIBITORS WITH E3 LIGASE LIGAND AND METHODS OF USE” (BEIGENE, LTD., priority 2020, published 2023).

The structures appear in SMILES notation. Read-outs that look alike come from different tables or passages of the source.

For assay [1], the target named is T1, EGFR L858R/T790M/C797S (BaF3-LTC cells) (Homo sapiens, UniProt P00533, C797S/L858R/T790M).
T1 construct: expressed in transfected cells; host or cells: BaF3
T1 sequence (P00533 25-1210 T790M/C797S/L858R): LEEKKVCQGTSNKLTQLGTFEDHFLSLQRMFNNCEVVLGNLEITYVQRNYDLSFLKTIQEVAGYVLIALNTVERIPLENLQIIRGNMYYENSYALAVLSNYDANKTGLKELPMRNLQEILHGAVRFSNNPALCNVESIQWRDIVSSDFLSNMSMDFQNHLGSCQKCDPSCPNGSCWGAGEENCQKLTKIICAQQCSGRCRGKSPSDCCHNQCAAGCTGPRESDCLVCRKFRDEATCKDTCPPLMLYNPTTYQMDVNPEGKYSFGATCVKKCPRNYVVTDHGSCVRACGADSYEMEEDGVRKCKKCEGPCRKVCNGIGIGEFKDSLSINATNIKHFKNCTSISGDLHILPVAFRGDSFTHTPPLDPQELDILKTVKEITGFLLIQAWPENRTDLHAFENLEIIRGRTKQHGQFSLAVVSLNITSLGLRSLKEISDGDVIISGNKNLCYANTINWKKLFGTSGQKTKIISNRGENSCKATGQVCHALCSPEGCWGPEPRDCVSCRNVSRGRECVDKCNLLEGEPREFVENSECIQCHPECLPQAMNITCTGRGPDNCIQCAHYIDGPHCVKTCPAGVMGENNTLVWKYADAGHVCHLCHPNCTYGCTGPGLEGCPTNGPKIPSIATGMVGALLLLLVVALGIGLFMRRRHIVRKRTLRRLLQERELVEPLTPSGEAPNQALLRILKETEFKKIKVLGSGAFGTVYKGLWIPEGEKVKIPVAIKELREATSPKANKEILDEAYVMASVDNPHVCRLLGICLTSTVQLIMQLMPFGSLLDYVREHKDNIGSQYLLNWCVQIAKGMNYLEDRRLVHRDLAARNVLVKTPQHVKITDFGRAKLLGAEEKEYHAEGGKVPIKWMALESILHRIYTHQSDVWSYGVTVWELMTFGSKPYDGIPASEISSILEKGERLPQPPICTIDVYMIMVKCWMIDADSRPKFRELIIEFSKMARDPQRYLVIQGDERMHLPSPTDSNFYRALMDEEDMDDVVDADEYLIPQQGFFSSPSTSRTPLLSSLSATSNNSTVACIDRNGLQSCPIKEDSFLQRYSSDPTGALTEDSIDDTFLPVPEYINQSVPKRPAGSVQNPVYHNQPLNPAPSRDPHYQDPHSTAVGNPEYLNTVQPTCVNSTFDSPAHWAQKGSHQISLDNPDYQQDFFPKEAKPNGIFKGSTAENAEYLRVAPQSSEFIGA
Description: EGFR degradation HTRF assay, BaF3-LTC cells. The assay is classed as cell-based. The essentials:
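Cells treated 16 h at 37 °C, 5% CO2 in medium with 0.2% DMSO; top final concentration 10 uM, 5-fold dilution, 8 doses. Lysates read by HTRF (665/620 nm); degradation % versus DMSO high control, DC50 from four-parameter fit, Dmax as maximal degradation.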
On the technique in general: TR-FRET usually uses a lanthanide donor and a delayed reading to cut background.

The test system of assay [2] is EGFR Del19/T790M/C797S (H1975-clone #28). Description: EGFR degradation HTRF assay, H1975-clone #28 DTC cells. It counts as cell-based. The essentials: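 Compounds (top 10 uM, 5-fold, 8 points, 0.2% DMSO) incubated 16 h at 37 °C on homozygous clones: #23 Del19/C797S, #28 Del19/T790M/C797S, exogenous EGFR only in H1975. HTRF on lysates quantified remaining EGFR relative to DMSO; four-parameter fit gave DC50 and Dmax.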

The mark [3] stands for this setting: read-out: DC50(nM) BaF3-LTC; BaF3-LTC cells; EGFR degradation, IC50 (DC50) from curve fit.
Setting [4] is: H1975 # 28 DTC cells; maximum percentage of inhibition (degradation).
Where [5] appears, read: read-out: DC50(nM) H1975 # 28 DTC; H1975 # 28 DTC cells; EGFR degradation, IC50 (DC50) from curve fit.
Where [6] appears, read: BaF3-LTC cells; EGFR degradation, IC50 (DC50) from curve fit; read-out: DC50(nM) BaF3-LTC.
Where [7] appears, read: BaF3-LTC cells; maximum percentage of inhibition (degradation); read-out: Dmax (%) BaF3-LTC.
The mark [8] stands for this setting: H1975 # 28 DTC cells; EGFR degradation, IC50 (DC50) from curve fit; read-out: DC50(nM) H1975 # 28 DTC.

Take `CCOc1cc(N2CCC(N3CCN(CCCc4cc(F)cc5c4oc(=O)n5C4CCC(=O)NC4=O)CC3)CC2)c(CC)cc1Nc1ncc(Br)c(Nc2ccc3nc(CC)ncc3c2P(C)(C)=O)n1` (stereo not drawn) [Example 617, 3-(7-(3-(4-(1-(4-((5-bromo-4-((5-(dimethylphosphoryl)-2-ethylquinazolin-6-yl)amino)pyrimidin-2-yl)amino)-5-ethoxy-2-ethylphenyl)piperidin-4-yl)piperazin-1-yl)propyl)-5-fluoro-2-oxobenzo[d]oxazol-3(2H)-yl)piperidine-2,6-dione]: the “Dmax (%) BaF3-LTC” value in assay [1] (BaF3-LTC cells; maximum percentage of inhibition (degradation)) is on record as 91.31%. The half-maximal degradation concentration (DC50) in assay [1] (setting [3]) came out at 5.77 nM; in assay [2] (setting [5]) it was 1.15 nM. In assay [2] (setting [4]), the “Dmax (%) H1975 # 28 DTC” value turned out to be 74.31%.
For the molecule `CCOc1cc(N2CCC(N3CCN(CCc4cc(OC)cc5c4oc(=O)n5C4CCC(=O)NC4=O)CC3)CC2)c(CC)cc1Nc1ncc(Br)c(Nc2ccc3nc(CC)ccc3c2P(C)(C)=O)n1` (stereo not drawn) [Example 618, 3-(7-(2-(4-(1-(4-((5-bromo-4-((5-(dimethylphosphoryl)-2-ethylquinolin-6-yl)amino)pyrimidin-2-yl)amino)-5-ethoxy-2-ethylphenyl)piperidin-4-yl)piperazin-1-yl)ethyl)-5-methoxy-2-oxobenzo[d]oxazol-3(2H)-yl)piperidine-2,6-dione], the DC50 was 53.2 nM in assay [1] (setting [6]) and 2.14 nM in assay [2] (setting [8]). For the same molecule, the Dmax in assay [1] (setting [7]) turned out to be 74.2%. In addition, in assay [2] (setting [4]), the “Dmax (%) H1975 # 28 DTC” value came to 74.88%.
The corresponding values for `CCOc1cc(N2CCC(N3CCN(CCOCCc4cccc5c4oc(=O)n5C4CCC(=O)NC4=O)CC3)CC2)c(CC)cc1Nc1ncc(Br)c(Nc2ccc3nc(CC)ccc3c2P(C)(C)=O)n1` (stereo not drawn) [Example 619, 3-(7-(2-(2-(4-(1-(4-((5-bromo-4-((5-(dimethylphosphoryl)-2-ethylquinolin-6-yl)amino)pyrimidin-2-yl)amino)-5-ethoxy-2-ethylphenyl)piperidin-4-yl)piperazin-1-yl)ethoxy)ethyl)-2-oxobenzod[d]oxazol-3(2H)-yl)piperidine-2,6-dione] are 11.2 nM, 0.91 nM, 92.1% and 62.88%.
Taken in the same sequence, the figures for `CCOc1cc(N2CCC(N3CCN(CCCc4cc(F)cc5c4oc(=O)n5C4CCC(=O)NC4=O)CC3)CC2)c(CC)cc1Nc1ncc(Br)c(Nc2cc(F)c3nc(CC)ccc3c2P(C)(C)=O)n1` (stereo not drawn) [Example 620, 3-(7-(3-(4-(1-(4-((5-bromo-4-((5-(dimethylphosphoryl)-2-ethyl-8-fluoroquinolin-6-yl)amino)pyrimidin-2-yl)amino)-5-ethoxy-2-ethylphenyl)piperidin-4-yl)piperazin-1-yl)propyl)-5-fluoro-2-oxobenzo[d]oxazol-3(2H)-yl)piperidine-2,6-dione] were 8.28 nM, 2.04 nM, 93.8% and 78.78%.
Taken in the same sequence, the figures for `CCOc1cc(N2CCC(N3CCN(CC4CCN(c5cc(F)cc6c5oc(=O)n6C5CCC(=O)NC5=O)CC4)CC3)CC2)c(CC)cc1Nc1ncc(Br)c(Nc2ccc3nc(CC)ccc3c2P(C)(C)=O)n1` (stereo not drawn) [Example 621, 3-(7-(4-((4-(1-(4-((5-bromo-4-((5-(dimethylphosphoryl)-2-ethylquinolin-6-yl)amino)pyrimidin-2-yl)amino)-5-ethoxy-2-ethylphenyl)piperidin-4-yl)piperazin-1-yl)methyl)piperidin-1-yl)-5-fluoro-2-oxobenzo[d]oxazol-3(2H)-yl)piperidine-2,6-dione] were 15 nM, 1.61 nM, 93.9% and 77.44%.
As to `CCOc1cc(N2CCC(N3CCN(CC4CN(c5cccc6c5n(C)c(=O)n6C5CCC(=O)NC5=O)C4)CC3)CC2)c(CC)cc1Nc1ncc(Br)c(Nc2ccc3c(=O)n(CC)ncc3c2P(C)(C)=O)n1` (stereo not drawn) [Example 622, 3-(4-(3-((4-(1-(4-((5-bromo-4-((5-(dimethylphosphoryl)-2-ethyl-1-oxo-1,2-dihydrophthalazin-6-yl)amino)pyrimidin-2-yl)amino)-5-ethoxy-2-ethylphenyl)piperidin-4-yl)piperazin-1-yl)methyl)azetidin-1-yl)-3-methyl-2-oxo-2,3-dihydro-1H-benzo[d]imidazol-1-yl)piperidine-2,6-dione], the values for the DC50 in assay [1] (setting [6]) and in assay [2] (setting [8]) were 37.3 nM and 4.78 nM, respectively. The maximal degradation (Dmax) in assay [1] (setting [7]) amounted to 94%. Besides, the “Dmax (%) H1975 # 28 DTC” value in assay [2] (setting [4]) amounted to 75.46%.
The corresponding values for `CCOc1cc(N2CCC(N3CCN(C[C@@H]4CCN(c5cccc6c5oc(=O)n6C5CCC(=O)NC5=O)C4)CC3)CC2)c(CC)cc1Nc1ncc(Br)c(Nc2ccc3c(=O)n(CC)ncc3c2P(C)(C)=O)n1` (stereo partly drawn) [Example 623, 3-(7-((S)-3-((4-(1-(4-((5-bromo-4-((5-(dimethylphosphoryl)-2-ethyl-1-oxo-1,2-dihydrophthalazin-6-yl)amino)pyrimidin-2-yl)amino)-5-ethoxy-2-ethylphenyl)piperidin-4-yl)piperazin-1-yl)methyl)pyrrolidin-1-yl)-2-oxobenzo[d]oxazol-3(2H)-yl)piperidine-2,6-dione] are 17.1 nM, 1.31 nM, 92% and 75.76%.
With `CCOc1cc(N2CCC(N3CCN(CCc4ccc5c(oc(=O)n5C5CCC(=O)NC5=O)c4Cl)CC3)CC2)c(CC)cc1Nc1ncc(Br)c(Nc2ccc3nc(CC)ccc3c2P(C)(C)=O)n1` (stereo not drawn) [Example 624, 3-(6-(2-(4-(1-(4-((5-bromo-4-((5-(dimethylphosphoryl)-2-ethylquinolin-6-yl)amino)pyrimidin-2-yl)amino)-5-ethoxy-2-ethylphenyl)piperidin-4-yl)piperazin-1-yl)ethyl)-7-chloro-2-oxobenzo[d]oxazol-3(2H)-yl)piperidine-2,6-dione], the half-maximal degradation concentration (DC50) in assay [1] (setting [6]) was found to be 21.9 nM; in assay [2] (setting [8]), 1.05 nM. In assay [1] (setting [7]), the Dmax turned out to be 95.4%. The “Dmax (%) H1975 # 28 DTC” value in assay [2] (setting [4]) is given as 73.81%.
In the case of `CCOc1cc(N2CCC(N3CCN(C(=O)CCC4CN(c5cccc6c5oc(=O)n6C5CCC(=O)NC5=O)C4)CC3)CC2)c(CC)cc1Nc1ncc(Br)c(Nc2ccc3nc(CC)ccc3c2P(C)(C)=O)n1` (stereo not drawn) [Example 625, 3-(7-(3-(3-(4-(1-(4-((5-bromo-4-((5-(dimethylphosphoryl)-2-ethylquinolin-6-yl)amino)pyrimidin-2-yl)amino)-5-ethoxy-2-ethylphenyl)piperidin-4-yl)piperazin-1-yl)-3-oxopropyl)azetidin-1-yl)-2-oxobenzo[d]oxazol-3(2H)-yl)piperidine-2,6-dione], the results for the DC50 in assay [1] (setting [3]) and in assay [2] (setting [5]) were 11 nM and 1.86 nM, respectively. In addition, the Dmax in assay [1] (read-out: Dmax (%) BaF3-LTC, BaF3-LTC cells; maximum percentage of inhibition (degradation)) was determined as 88.8%. The “Dmax (%) H1975 # 28 DTC” value in assay [2] (setting [4]) turned out to be 80.1%.
In the case of `CCOc1cc(N2CCC(N3CCN(CCc4cc5oc(=O)n(C6CCC(=O)NC6=O)c5cc4Cl)CC3)CC2)c(CC)cc1Nc1ncc(Br)c(Nc2ccc3c(=O)n(CC)ncc3c2P(C)(C)=O)n1` (stereo not drawn) [Example 626, 3-(6-(2-(4-(1-(4-((5-bromo-4-((5-(dimethylphosphoryl)-2-ethyl-1-oxo-1,2-dihydrophthalazin-6-yl)amino)pyrimidin-2-yl)amino)-5-ethoxy-2-ethylphenyl)piperidin-4-yl)piperazin-1-yl)ethyl)-5-chloro-2-oxobenzo[d]oxazol-3(2H)-yl)piperidine-2,6-dione], the 50% degradation concentration (DC50) was 5.43 nM in assay [1] (setting [6]) and 0.711 nM in assay [2] (setting [8]). Also, the Dmax in assay [1] (setting [7]) was 91%. Besides, in assay [2] (setting [4]), the “Dmax (%) H1975 # 28 DTC” value came out at 76.73%.
Taken in the same sequence, the figures for `CCOc1cc(N2CCC(N3CCN(CCc4cc5oc(=O)n(C6CCC(=O)NC6=O)c5cc4Cl)CC3)CC2)c(CC)cc1Nc1ncc(Br)c(Nc2ccc3nc(CC)ccc3c2P(C)(C)=O)n1` (stereo not drawn) [Example 627, 3-(6-(2-(4-(1-(4-((5-bromo-4-((5-(dimethylphosphoryl)-2-ethylquinolin-6-yl)amino)pyrimidin-2-yl)amino)-5-ethoxy-2-ethylphenyl)piperidin-4-yl)piperazin-1-yl)ethyl)-5-chloro-2-oxobenzo[d]oxazol-3(2H)-yl)piperidine-2,6-dione] were 9.13 nM, 1.23 nM, 94.5% and 76.26%.
The corresponding values for `CCOc1cc(N2CCC(N3CCN(CCc4cc5oc(=O)n(C6CCC(=O)NC6=O)c5cc4F)CC3)CC2)c(CC)cc1Nc1ncc(Br)c(Nc2ccc3c(=O)n(CC)ncc3c2P(C)(C)=O)n1` (stereo not drawn) [Example 628, 3-(6-(2-(4-(1-(4-((5-bromo-4-((5-(dimethylphosphoryl)-2-ethyl-1-oxo-1,2-dihydrophthalazin-6-yl)amino)pyrimidin-2-yl)amino)-5-ethoxy-2-ethylphenyl)piperidin-4-yl)piperazin-1-yl)ethyl)-5-fluoro-2-oxobenzo[d]oxazol-3(2H)-yl)piperidine-2,6-dione] are 3.24 nM, 0.715 nM, 92.3% and 76.12%.

As a reminder, the DC50 is the concentration at which degradation of the target reaches its halfway point. As usually defined, the Dmax is the greatest extent of degradation seen.
